According to patent US4410544A, “Platinum-diamine complexes, a method for the preparation of a medicine using such a platinum-diamine complex for the treatment of malignant tumor in mice” (priority 1978, dated 1983):

Tests used:
[1] = system: L-1210 lymphoid leukemia (LE); test: Anti-cancerous activity in mice, L-1210 lymphoid leukemia (LE); format: in vivo, mouse
Source text: (§1) An extensive research program carried out by the National Cancer Institute, Bethesda, Md., and the European Organization for Research on the Treatment of Cancer, Brussels, Belgium, has shown that when compared to PDD, compounds according to this invention, particularly compounds having the following formulas display a high therapeutic activity against a great number of different mammalian types of tumor, such as P 388 lymphocytic leukemia (PS), L-1210 lymphoid leukemia (LE), ependymoblastoma (EM), B 16 melanocarcinoma (B1) and a line of L-1210 leukemia resistant to cis-PDD (LE/cis-PDD): [drawing 9]
(§2) More detailed information concerning the testing procedure and their interpretation are contained in Instruction 14, Screening Data Summary, Interpretation and Outline of Current Screen, Drug Evaluation Branch, National Cancer Institute, Bethesda, Md., 20014 (1977) which is incorporated herein by reference.
(§3) *Period of survival is the ratio of survival times of the treated mice (T
(§4) to untreated mice (C); the therapeutic activity is significant at T/C
(§5) ≥ 125. The figures include dying mice only. A cure is defined as a
(§6) mouse free of tumors 45 days after injection, as determined by visual
(§7) **For Formula 12-cis PDD the mice were injected with 10^6 L1210
(§8) ascites cells. One I.P. injection of the test compound was given to each

[2] = system: P 388 lymphocytic leukemia (PS); test: Anti-cancerous activity in mice, P 388 lymphocytic leukemia (PS); format: in vivo, mouse; settings: CD2 F1 mice
Source text: as §1, §2, §3, §4, §5, §6

ependymoblastoma (EM) = test: Anti-cancerous activity in mice, ependymoblastoma (EM); format: in vivo, mouse
Source text: as §1, §2, §3, §4, §5, §6

[3] = system: L-1210 leukemia resistant to cis-PDD (LE/cis-PDD); test: Anti-cancerous activity in mice, L-1210 leukemia resistant to cis-PDD (LE/cis-PDD); format: in vivo, mouse; settings: for cures (mice free of tumors 45 days after injection) / T/C (period of survival, treated/untreated): LE/cis PDD, BDF1 mice; for cures (mice free of tumors 45 days after injection): of six mice; for T/C (period of survival, treated/untreated): one I.P. injection; for effectiveness against the cis-PDD resistant line of L-1210 versus the parent line: mice
Source text: as §1, §2, §3, §4, §5, §6, §7, §8

[4] = system: B 16 melanocarcinoma (B1); test: Anti-cancerous activity in mice, B 16 melanocarcinoma (B1); format: in vivo, mouse; settings: B16, B6 D2 (BDF) mice
Source text: as §1, §2, §3, §4, §5, §6

[5] = Urea-nitrogen in the blood after administering platinum complexes (in the rat); format: in vivo
Experimental: Percentage of urea-nitrogen in the blood after
administering platinum complexes (in the rat).
Both at doses corresponding with the LD10 -amount and at those corresponding with the LD50 -amount the urea-nitrogen contents in the blood are identical to the control values. BUN values≥30 mg% are generally considered indicative of drug-induced nephrotoxicity. […] In was found by means of a histological examination of rats after treatment with toxic doses of compounds of this invention, that these compounds display little or no kidney toxicity.

mammalian types of tumor = test: Therapeutic activity against mammalian tumors (NCI / EORTC program); format: in vivo, mouse; settings: mice; Table A experiments
Source text: as §1, §2

cancer = settings: literature, cited from earlier work
[6] = Lethal doses LD10 / LD50 given with the BUN test in the rat
[7] = literature; cited from earlier work
[8] = literature; cited from earlier work; remark: listed apart in the source
[9] = CD2 F1 mice, 12.50 mg/kg per injection
[10] = 6.25 mg/kg per injection, significant at T/C ≥ 125
[11] = BDF1 mice, 50.00 mg/kg, one I.P. injection, 10^6 L1210 ascites cells

## NCC1(CN)CCCCC1.O=S(=O)([O-])[O-].[Pt+2] [Formula 11, Cis-1,1-di(aminomethyl)cyclohexane platinum(II) sulphate]
[1]; [9]
  T/C (period of survival, treated/untreated): 274%

## NCC1(CN)CCCC1.[Cl][Pt][Cl] [Formula 10, Cis-dichloro-1,1-di(aminomethyl)cyclopentane platinum(II)]
[1]; [9]
  T/C (period of survival, treated/untreated): 148%

## NCC1(CN)CCCCC1.O=C1[O][Pt][O]C(=O)C12CCCCC2 [Formula 7, Cis-cyclopentamethylene malonato-1,1-di(aminomethyl)cyclohexane platinum(II)]
[2]; [10]
  T/C (period of survival, treated/untreated): 162%
[2]; 12.50 mg/kg per injection
  T/C (period of survival, treated/untreated): 177%
[2]; 25.00 mg/kg per injection
  T/C (period of survival, treated/untreated): 226%
[1]; CD2 F1 mice, 80.00 mg/kg per injection
  T/C (period of survival, treated/untreated): 138%
Ependymoblastoma (EM); 57BL/6 mice, 6.25 mg/kg per injection
  T/C (period of survival, treated/untreated): 130%
Ependymoblastoma (EM); 57BL/6 mice, 12.50 mg/kg per injection
  T/C (period of survival, treated/untreated): 163%

## CCC(CC)(CN)CN.O=S(=O)([O-])[O-].[Pt+2] [Formula 17, Cis-2,2-diethyl-1,3-propanediamine platinum(II) sulphate]
[1]; BDF1 mice, 12.00 mg/kg, one I.P. injection, 10^6 L1210 ascites cells
  T/C (period of survival, treated/untreated): 200%
[3]; 6.00 mg/kg
  cures (mice free of tumors 45 days after injection): 3/6
  T/C (period of survival, treated/untreated): > 500%
[3]
  effectiveness against the cis-PDD resistant line of L-1210 versus the parent line: even more effective against the cis-PDD resistant line of L-1210 than they are against the parent line of L-1210

## CCC(C)(CN)CN.[Cl][Pt][Cl] [Formula 8, Cis-dichloro-(2-methyl-2-ethyl)-1,3-propane diamine platinum (II)]
[1]; [9]
  T/C (period of survival, treated/untreated): 289%

## NCC1(CN)CCCCC1.O=C(O)c1ccc2c(c1)C(=O)[O][Pt][O]C2=O [Formula 15, Cis-4-carboxyphthalato-1,1-di(aminomethyl)-cyclohexane platinum (II)]
[1]; BDF1 mice, 40.00 mg/kg, one I.P. injection, 10^6 L1210 ascites cells
  T/C (period of survival, treated/untreated): 200%

## CCC(CC)(CN)CN.[Cl][Pt][Cl] [Formula 9, Cis-dichloro-2,2-diethyl-1,3-propane diamine platinum(II)]
[1]; [9]
  T/C (period of survival, treated/untreated): 323%

## NCC1(CN)CCC1.[Cl-].[Cl-].[Pt+2] [Formula 12, Cis-dichloro-1,1-di(aminomethyl)cyclobutane platinum(II)]
[1]; BDF1 mice, 15.00 mg/kg, one I.P. injection, 10^6 L1210 ascites cells
  T/C (period of survival, treated/untreated): 208%

## NCC1(CN)CCCCC1.O=C([O-])CC(=O)[O-].[Pt+2] [Formula 18, Cis-1,1-di(aminomethyl)-cyclohexanemalonato platinum(II)]
[1]; BDF1 mice, 64.00 mg/kg, of six mice
  cures (mice free of tumors 45 days after injection): 1/6
[1]; BDF1 mice, 64.00 mg/kg, one I.P. injection, dying mice only
  T/C (period of survival, treated/untreated): 200%
[3]; 16.00 mg/kg
  T/C (period of survival, treated/untreated): 230%
[3]
  effectiveness against the cis-PDD resistant line of L-1210 versus the parent line: even more effective against the cis-PDD resistant line of L-1210 than they are against the parent line of L-1210

## NCC(CN)(Cc1ccccc1)Cc1ccccc1.[Cl][Pt][Cl] [Formula 13, Cis-dichloro-2,2-dibenzyl-1,3-propane diamine platinum(II)]
[1]; [11]
  T/C (period of survival, treated/untreated): 135%

## NCC1(CN)CCCCC1.O=C(CCl)[O][Pt][O]C(=O)CCl [Formula 16, Cis-1,1-di(aminomethyl)-cyclohexane-bis(chloroacetato)platinum(II)]
[1]; BDF1 mice, 6.00 mg/kg, one I.P. injection, 10^6 L1210 ascites cells
  T/C (period of survival, treated/untreated): 207%

## NCC1(CN)CCCCC1.O=C1[O][Pt][O]C(=O)C1O [Formula 19, Cis-1,1-di(aminomethyl)cyclohexanehydroxymalonato platinum(II)]
[1]; BDF1 mice, 36.00 mg/kg, one I.P. injection, 10^6 L1210 ascites cells
  T/C (period of survival, treated/untreated): 246%
[3]; 24.00 mg/kg
  cures (mice free of tumors 45 days after injection): 3/6
  T/C (period of survival, treated/untreated): > 500%
[3]
  effectiveness against the cis-PDD resistant line of L-1210 versus the parent line: even more effective against the cis-PDD resistant line of L-1210 than they are against the parent line of L-1210

## CC(C)C(CN)(CN)C(C)C.[Cl-].[Cl-].[Pt+2] [Formula 14, Cis-dichloro-2,2-diisopropyl-1,3-propane diamine platinum(II)]
[1]; [11]
  T/C (period of survival, treated/untreated): 178%

## cis-platinum diamine dichloride [PDD]
[1]; BDF1 mice, 8.00 mg/kg, one I.P. injection, 10^6 L1210 ascites cells
  T/C (period of survival, treated/untreated): 183%
[4]; 2.00 mg/kg per injection
  T/C (period of survival, treated/untreated): 197%
[3]; 4-8 mg/kg
  T/C (period of survival, treated/untreated): 106-121%
[5]; 3 mg/kg (LD10), 0 days after injection
  Percentage of urea-nitrogen in blood: 10%
[5]; 3 mg/kg (LD10), 2 days after injection
  Percentage of urea-nitrogen in blood: 13%
[5]; 3 mg/kg (LD10), 4 days after injection
  Percentage of urea-nitrogen in blood: 52%
[5]; 7.6 mg/kg (LD50), 0 days after injection
  Percentage of urea-nitrogen in blood: 10%
[5]; 7.6 mg/kg (LD50), 2 days after injection
  Percentage of urea-nitrogen in blood: 78%
[5]; 7.6 mg/kg (LD50), 4 days after injection
  Percentage of urea-nitrogen in blood: 148%
[5]; LD10 dose, 4 days after injection
  increase in the urea nitrogen content: about a quadruple increase
Mammalian types of tumor
  complete cures: not observed
cancer
  therapeutic index: low therapeutic index
cancer; treatment of cancer
  toxicity: Toxicity is a very serious drawback
[6]
  LD10: 3 mg/kg
  LD50: 7.6 mg/kg

## cis-dichlorobiscyclopentyl amine platinum(II)
[7]
  kidney toxicity: only slightly toxic to the kidneys
[8]
  spleen toxicity: toxic to the spleen

## NCC1(CN)CCCCC1.[Cl][Pt][Cl] [Formula 4, Cis-dichloro-1,1-di(aminomethyl)cyclohexane platinum(II)]
[2]; 1.56 mg/kg per injection
  T/C (period of survival, treated/untreated): 153%
[2]; 3.12 mg/kg per injection
  T/C (period of survival, treated/untreated): 181%
[2]; [10]
  T/C (period of survival, treated/untreated): 201%
[1]; CD2 F1 mice, 3.12 mg/kg per injection
  T/C (period of survival, treated/untreated): 145%
[1]; CD2 F1 mice, 6.25 mg/kg per injection
  T/C (period of survival, treated/untreated): 180%
[1]; [9]
  T/C (period of survival, treated/untreated): 234%
Ependymoblastoma (EM); C57BL/6 mice, 6.00 mg/kg per injection
  T/C (period of survival, treated/untreated): 126%
[4]; 1.50 mg/kg per injection
  T/C (period of survival, treated/untreated): 190%
[4]; 3.00 mg/kg per injection
  T/C (period of survival, treated/untreated): 208%
[4]; 6.00 mg/kg per injection
  T/C (period of survival, treated/untreated): 208%
[6]
  LD10: 8 mg/kg
  LD50: 15 mg/kg
